We go through two molecules from patent US11426473B2, “Nitrogen-containing compound or salt thereof, or metal complex thereof” (FUJIFILM Corporation, priority 2013, dated 2022).

Series [1] relates to T98G cell (human glioblastoma) subcutaneous tumor. As to the kind of experiment: Treatment experiment of subcutaneously T98G-transplanted model using [90Y]-(P2). Particulars: 1 dose; for Rate of inhibition: 13 days after administration, above 100% indicated as 100%; for Tumor volume 13 days after administration / Tumor volume At start of administration: n 6, Mean ± SD; for Tumor volume At start of administration: baseline; for The number of individuals having tumor regression: of n 6. Type of series: in vivo, mouse. The protocol:
(§1) U87MG cells were subcutaneously transplanted at 1×10^7 cells/mouse to the right flank of Balb/c Slc-nu/nu (SLC Japan, Inc., male, 6 weeks old). After 2 weeks, mice whose tumors became 100 to 500 mm^3 were grouped. Phosphate-buffered saline (PBS) or the radiolabeled compound [90Y]-(P2) was administered to the tail veins of the mice, and their tumor volumes were measured. When the tumor volumes of the mice in the PBS group exceeded 2,000 mm^3, which is a humanistic endpoint, the antitumor effect was evaluated. The evaluation values were the rate of inhibition of tumor growth ((1−(Average tumor volume of the compound administration group−Average tumor volume of the compound administration group before administration)/(Average tumor volume of the PBS group−Average tumor volume of the PBS group before administration))×100 (provided that the rate of inhibition exceeding 100% was indicated as 100%)) and the number of individuals having a tumor volume equal to or smaller than that at the start of the experiment (the number of individuals having tumor regression).
A mixture of a T98G cell suspension (human glioblastoma, 1×10^7 cells) and Matrigel (Becton, Dickinson and Company) in equal amounts was subcutaneously transplanted to the right flank of Balb/c Slc-nu/nu (SLC Japan, Inc., male, 6 weeks old). After 77 days, the mice were grouped when their tumors became 300 to 1,200 mm^3. Phosphate-buffered saline (PBS) or the radiolabeled compound [^90Y]-(P2) was administered to the tail veins of the mice, and their tumor volumes were measured. The evaluation values were calculated in the same way as in Test Example 8 to evaluate the antitumor effect.

Series [2] can be described thus: Absorbed doses in each organ in humans calculated with OLINDA/EXM 1.0 from monkey organ distribution. It counts as in vivo. Particulars: calculated with OLINDA/EXM 1.0 from monkey imaging with [111In]-(P2). The protocol:
Blood kinetic parameters were calculated with OLINDA/EXM 1.0 from the blood concentration of radioactivity by blood collection over time from a cynomolgus monkey using [^111In]-(P2). Also, absorbed doses in each organ in the case of administration to humans were calculated with OLINDA/EXM 1.0 from organ distribution by imaging using [^111In]-(P2). The radiolabeled compound [^111In]-(P2) (98 MBq/[…]) was administered to a cynomolgus monkey (Hamri Co., Ltd., male, 3 years old, 3.4 kg) under anesthesia. After the administration, blood collection and imaging with a gamma camera were performed over time. The blood collection was carried out 10 minutes, 30 minutes, 60 minutes, 2 hours, 4 hours, 5 hours, 6 hours, 24 hours, 48 hours, 72 hours, and 144 hours after administration. The imaging was carried out 1, 2, 4, 6, 24, 48, 72, and 144 hours after administration with a gamma camera (Symbia, Siemens AG) to take planar images. The anesthesia was carried out using 20 mg/kg ketamine before administration of [^111In]-(P2) and maintained by inhalation anesthesia (2 to 3% isoflurane, 5 to 8 L/min) until the completion of the imaging at 6 hours after administration. At or after 24 hours after administration, blood collection and imaging were performed by the introduction of 20 mg/kg ketamine and 2 mg/kg xylazine. […] The blood kinetic parameters are shown below.

Series [3] can be described thus: Radiochemical purity after standing at room temperature. Type of series: physicochemical. The note with it: immediately after preparation and after standing at room temperature for 24 hours. On the procedure: To a mixed solution of compound (P2) (8.5 μg) and a 0.2 mol/L sodium acetate buffer solution (pH 4.0) (1.5 mL), a [^111In] indium chloride solution (80 MBq, 100 μL) was added. The mixture was heated at 100° C. for 15 minutes and then left at room temperature for 5 minutes to obtain radiolabeled compound [^111In]-(P2). […] Its radiochemical purity was 95% or more both immediately after preparation and after standing at room temperature for 24 hours.
To a mixed solution of compound (P2) (79 μg), gentisic acid (1.8 mg), a 0.6 mol/L sodium acetate buffer solution (pH 4.0, 120 μL), and a 0.4 mol/L aqueous sodium hydroxide solution (24 μL), a [^90Y] yttrium chloride solution (700 MBq, 240 μL) was added. The mixture was heated at 100° C. for 20 minutes and then left at room temperature for 5 minutes to obtain radiolabeled compound [^90Y]-(P2). […] Its radiochemical purity was 95% or more both immediately after preparation and after standing at room temperature for 24 hours.
To a mixed solution of compound (P2) ([…]) and a 0.2 mol/L sodium acetate buffer solution (pH 4.0, 219 μL), a [^64Cu] copper chloride solution (pH 5, 35 MBq, 55 μL) was added. The mixture was heated at 100° C. for 15 minutes and then left at room temperature for 5 minutes to obtain radiolabeled compound [^64Cu]-(P2). […] Its radiochemical purity was 90% or more both immediately after preparation and after standing at room temperature for 22 hours.
To a mixed solution of compound (Aa7) (4.2 μg), gentisic acid (1 mg), and a 0.2 mol/L sodium acetate buffer solution (pH 4.0) (5.0 μL), [^64Cu] copper chloride in a 0.2 mol/L sodium acetate buffer solution (pH 4.0) (40 MBq, 155 μL) was added. The mixture was heated at 100° C. for 15 minutes and then left at room temperature for 5 minutes to obtain radiolabeled compound [^64Cu]-(Aa7). […] Its radiochemical purity was 90% or more both immediately after preparation and after standing at room temperature for 24 hours.

The subject of series [4] is U87MG cells subcutaneous tumor. As to the kind of experiment: Concentration of radioactivity in tumor of labeled compounds (Test Example 4). Type of series: in vivo, mouse. Particulars: tail vein, 111In 740 kBq, 64Cu and 90Y 500 kBq. On the procedure:
U87MG cells were subcutaneously transplanted at 1×10^7 cells/mouse to the right flank of Balb/cAJcl-nu/nu (CLEA Japan, Inc. or Japan SLC, Inc., 6 to 9 weeks old). After 2 to 3 weeks, the mice were divided into groups each involving 3 individuals per point in time when their tumors became 200 to 500 mm^3. The ^111In-labeled compound (740 kBq) was administered to the tail veins of the mice.
After a given time, the animals were sacrificed to extract their tumors. The weights of the tumors were measured, and the radioactivity was measured using a gamma counter to calculate the concentration of radioactivity in the tumors (% ID/g). In the same way as above, the concentration of radioactivity in the tumors (% ID/g) was calculated for the ^64Cu-labeled compound (500 kBq) and the ^90Y-labeled compound (500 kBq).

Series [5] concerns U87MG cells subcutaneous tumor. As to the kind of experiment: Treatment experiment of subcutaneously U87MG-transplanted model using [90Y]-(P2). Type of series: in vivo, mouse. Particulars: 1 dose; for Rate of inhibition: 16 days after administration, above 100% indicated as 100%; for Tumor volume 16 days after administration / Tumor volume At start of administration: n 8, Mean ± SD; for Tumor volume At start of administration: baseline; for The number of individuals having tumor regression: of n 8. On the procedure:
as §1

The test system of series [6] is A498 (human renal cell cancer) subcutaneous tumor. As to the kind of experiment: Tumor accumulation of [111In]-(A8), tissue extraction and radioactivity measurement, A498. The note with it: 740 kBq tail vein. It counts as in vivo, mouse. On the procedure:
(§2) SK-MEL-28 (human melanoma), A375 (human melanoma), A498 (human renal cell cancer), Caki-2 (human renal cell cancer), HCT116, U87MG, and T98G cells were studied as follows: the cells of each line were cultured and subcutaneously transplanted at 1×10^7 cells/mouse to the right flank of Balb/cAJcl-nu/nu (CLEA Japan, Inc., male, 6 to 8 weeks old). The mice were raised until their tumor volumes reached 85 to 1,075 mm^3. Then, the mice were allocated at the time of anatomy to groups each involving 3 individuals so as to prevent the tumor volumes from disproportioning among the groups. Then, the radiolabeled compound [^111In]-(A8) (740 kBq) was administered to the tail veins of the mice. The animals were sacrificed at the time of anatomy to extract their tumors. The weights of the tumors were measured, and then, the radioactivity was measured using a gamma counter to calculate the concentration of radioactivity in the tumors (% ID/g: % injected dose/g).

Series [7] concerns A375 (human melanoma) subcutaneous tumor. As to the kind of experiment: Tumor accumulation of [111In]-(A8), tissue extraction and radioactivity measurement, A375. Type of series: in vivo, mouse. Particulars: 740 kBq tail vein. The protocol:
as §2

Series [8] has as its system HCT116 (human colorectal cancer) subcutaneous tumor. As to the kind of experiment: Tumor accumulation of [111In]-(A8), tissue extraction and radioactivity measurement, HCT116. It counts as in vivo, mouse. The note with it: 740 kBq tail vein. The protocol: as §2
Series [9] has as its system SK-MEL-28 (human melanoma) subcutaneous tumor. As to the kind of experiment: Tumor accumulation of [111In]-(A8), tissue extraction and radioactivity measurement, SK-MEL-28. It counts as in vivo, mouse. The note with it: 740 kBq tail vein. On the procedure: as §2
The subject of series [10] is U87MG (human glioblastoma) subcutaneous tumor. Nature of the series: Tumor accumulation of [111In]-(A8), tissue extraction and radioactivity measurement, U87MG. Type of series: in vivo, mouse. The note with it: 740 kBq tail vein. On the procedure: as §2
Series [11] concerns Caki-2 (human renal cell cancer) subcutaneous tumor. Nature of the series: Tumor accumulation of [111In]-(A8), tissue extraction and radioactivity measurement, Caki-2. The note with it: 740 kBq tail vein. It counts as in vivo, mouse. On the procedure: as §2
For series [12], the system named is T98G (human glioblastoma) subcutaneous tumor. Nature of the series: Tumor accumulation of [111In]-(A8), tissue extraction and radioactivity measurement, T98G. It counts as in vivo, mouse. Particulars: 740 kBq tail vein. The protocol:
as §2

`Cc1cc(OCCCC(=O)NCCNC(=O)[C@H](CS(=O)(=O)O)NC(=O)CN2CCN(CC(=O)[O-])CCN(CC(=O)[O-])CCN(CC(=O)[O-])CC2)cc(C)c1S(=O)(=O)N[C@@H](CNC(=O)CCCCc1ccc2c(n1)NCCC2)C(=O)O.[90Y+3]` [[^90Y]-(P2)]: in [1] (Dose 22.2 MBa), the Rate of inhibition amounted to 82%, the “Tumor volume 13 days after administration” value is reported as 882 ± 399 mm^3, the “Tumor volume At start of administration” value turned out to be 755 ± 293 mm^3 and the “The number of individuals having tumor regression” value (“The number” below) came to 1. For the same molecule, in [1] (Dose 29.6 MBa), the Rate of inhibition turned out to be 97%, the “Tumor volume 13 days after administration” value is on record as 755 ± 313 mm^3, the “Tumor volume At start of administration” value is 736 ± 264 mm^3 and the “The number” value was found to be 3. In series [2], the “Absorbed dose, Brain” value was 1.96 mGy/MBq; the “Absorbed dose, Kidney” value is on record as 14.70 mGy/MBq; the “Absorbed dose, Liver” value is 1.12 mGy/MBq; the “Absorbed dose, Lung” value is on record as 1.35 mGy/MBq. Further, in series [2], the “Absorbed dose, Red bone marrow” value is given as 0.06 mGy/MBq; the “Absorbed dose, Small intestine” value is recorded as 0.87 mGy/MBq; the “Absorbed dose, Whole body” value is 0.27 mGy/MBq. Further, the “radiochemical purity after standing” value in [3] was no less than 95%. The “Concentration of radioactivity in tumor” value in [4] (4 hours later) is given as 12.52 % ID/g. The “Concentration of radioactivity in tumor” value in series [4] (24 hours later) was determined as 15.29 % ID/g. In series [5] (Dose 14.8 MBa), the Rate of inhibition is reported as 95%, the “Tumor volume 16 days after administration” value is 429 ± 188 mm^3, the “Tumor volume At start of administration” value is reported as 351 ± 72 mm^3 and the “The number” value came out at 2. Further, in series [5] (Dose 22.2 MBa), the Rate of inhibition amounted to 97%, the “Tumor volume 16 days after administration” value was 386 ± 142 mm^3, the “Tumor volume At start of administration” value worked out at 343 ± 88 mm^3 and the “The number” value turned out to be 2.
`Cc1cc(OCCCC(=O)NCCNC(=O)C(CS(=O)(=O)O)NC(=O)C(CS(=O)(=O)O)NC(=O)CN2CCN(CC(=O)[O-])CCN(CC(=O)[O-])CCN(CC(=O)[O-])CC2)cc(C)c1S(=O)(=O)NC(CNC(=O)c1ccc(CCc2ccc3c(n2)NCCC3)cc1)C(=O)O.[111In+3]` (stereo not drawn) [[^111In]-(A8)]: the “Concentration of radioactivity in tumor” value worked out at 13.1 % ID/g in [6] (A498, 4 hours later); 7.9 % ID/g in series [6] (A498, 24 hours later); 3.7 % ID/g in series [7] (A375, 4 hours later); 3.8 % ID/g in [7] (A375, 24 hours later); 3.1 % ID/g in series [8] (HCT116, 4 hours later); 2.9 % ID/g in series [8] (HCT116, 24 hours later). Further, the “Concentration of radioactivity in tumor” value in [9] (sk-mel-28, 4 hours later) turned out to be 2.9 % ID/g; in [9] (sk-mel-28, 24 hours later), 4.9 % ID/g; in [4] (4 hours later) it was 9.48 % ID/g; in series [4] (24 hours later), 12.90 % ID/g; in series [10] (4 hours later), 12.0 % ID/g; in [10] (24 hours later), 9.3 % ID/g. The “Concentration of radioactivity in tumor” value turned out to be 6.4 % ID/g in series [11] (caki-2, 4 hours later); 8.5 % ID/g in series [11] (caki-2, 24 hours later); 6.5 % ID/g in series [12] (4 hours later); 6.7 % ID/g in series [12] (24 hours later).
